Results from ChEMBL document CHEMBL3856260, “A synergistic antitumor effect of polyphyllin I and formosanin C on hepatocarcinoma cells” (Bioorg Med Chem Lett, 2016).
Activity calls are given as the source filed them. The calls are words filed in the database; no cut-off is given here.

Legend:
[1] = system: HepG2; experiment: Induction of cytochrome c release in human HepG2 cells by Western blot analysis in presence of polyphyllin I; format: functional, cell-based
[2] = Suppression of MMP9 expression in human HepG2 cells assessed as reduction in enzyme activity at 1 uM after 24 hrs by zymographic analysis in presence of polyphyllin I; format: functional, cell-based
[3] = Cytotoxicity against human HepG2 cells assessed as combination index at ED30 using 1:1 compound to polyphyllin I incubated for 24 hrs by MTT assay; format: functional
[4] = Cytotoxicity against human Bel7402 cells assessed as combination index at ED30 using 1:1 compound to polyphyllin I incubated for 24 hrs by MTT assay; format: functional, Bel-7402
[5] = system: HepG2; experiment: Decrease in CDK2 level in human HepG2 cells at 1 uM incubated for 24 hrs by Western blot analysis in presence of polyphyllin I; format: functional, cell-based
[6] = Cell cycle arrest in human HepG2 cells assessed as accumulation at G2 phase at 1 uM after 24 hrs by propidium iodide staining-based flow cytometry in presence of PPI (reference value: 2.04%); format: functional
[7] = Cytotoxicity against human HepG2 cells assessed as combination index at ED50 using 1:1 compound to polyphyllin I incubated for 24 hrs by MTT assay; format: functional
[8] = Cytotoxicity against human HepG2 cells after 24 hrs by MTT assay; format: functional, cell-based; conditions: HepG2, 24 h
[9] = system: HepG2; experiment: Induction of nuclear fragmentation in human HepG2 cells at 1 uM after 24 hrs by Hoechst 33258 staining-based fluorescence microscopic analysis; format: functional, cell-based
[10] = Induction of apoptosis in human HepG2 cells assessed as upregulation of Bax mRNA level at 1 uM incubated for 24 hrs by RT-PCR analysis in presence of polyphyllin I; format: functional, cell-based
[11] = system: HepG2; experiment: Induction of apoptosis in human HepG2 cells assessed as downregulation of Bcl2 mRNA level at 1 uM incubated for 24 hrs by RT-PCR analysis in presence of polyphyllin I; format: functional, cell-based
[12] = Induction of apoptosis in human HepG2 cells assessed as upregulation of caspase3 level at 1 uM incubated for 24 hrs by Western blot analysis in presence of polyphyllin I; format: functional, cell-based
[13] = system: HepG2; experiment: Decrease in cyclin E level in human HepG2 cells at 1 uM incubated for 24 hrs Western blot analysis in presence of polyphyllin I; format: functional, cell-based
[14] = system: HepG2; experiment: Decrease in CDK2 level in human HepG2 cells at 1 uM incubated for 24 hrs by Western blot analysis in presence of polyphyllin relative to relative to polyphyllin I alone treatment; format: functional, cell-based
[15] = Induction of apoptosis in human HepG2 cells assessed as upregulation of Bax level at 1 uM incubated for 24 hrs by Western blot analysis in presence of polyphyllin I; format: functional, cell-based
[16] = Suppression of MMP9 expression in human HepG2 cells at 1 uM after 24 hrs by Western blot analysis in presence of polyphyllin I; format: functional, cell-based
[17] = system: HepG2; experiment: Induction of chromatin compaction in human HepG2 cells at 0.5 uM after 24 hrs by Hoechst 33258 staining-based fluorescence microscopic analysis in presence of polyphyllin I; format: functional, cell-based
[18] = Cytotoxicity against human Bel7402 cells after 24 hrs by MTT assay; format: functional, cell-based; conditions: Bel-7402, 24 h
[19] = system: HepG2; experiment: Induction of chromatin compaction in human HepG2 cells at 1 uM after 24 hrs by Hoechst 33258 staining-based fluorescence microscopic analysis; format: functional, cell-based
[20] = system: HepG2; experiment: Antimigratory activity in human HepG2 cells at 1 uM after 24 hrs by wound healing assay in presence of polyphyllin I; format: functional, cell-based
[21] = Induction of apoptosis in human HepG2 cells assessed as upregulation of caspase3 mRNA level at 1 uM incubated for 24 hrs by RT-PCR analysis in presence of polyphyllin I; format: functional, cell-based
[22] = system: HepG2; experiment: Induction mitochondrial membrane potential changes in human HepG2 cells at 1 uM after 24 hrs by rhodamine 123 staining-based flow cytometry in presence of polyphyllin I (reference value: 23.8+/-2.3%); format: functional
[23] = system: HepG2; experiment: Increase in p21 level in human HepG2 cells at 1 uM incubated for 24 hrs by Western blot analysis in presence of polyphyllin I; format: functional, cell-based
[24] = Cell cycle arrest in human HepG2 cells assessed as accumulation at S phase at 1 uM after 24 hrs by propidium iodide staining-based flow cytometry(reference value: 42.33%); format: functional
[25] = Cytotoxicity against human HepG2 cells assessed as combination index at ED90 using 1:1 compound to polyphyllin I incubated for 24 hrs by MTT assay; format: functional
[26] = Induction of apoptosis in human HepG2 cells assessed as upregulation of p53 level at 1 uM incubated for 24 hrs by Western blot analysis in presence of polyphyllin I; format: functional, cell-based
[27] = system: HepG2; experiment: Induction of apoptosis in human HepG2 cells assessed as downregulation of NF-kappaB […] level at 1 uM incubated for 24 hrs by RT-PCR analysis in presence of polyphyllin I; format: functional, cell-based
[28] = Cell cycle arrest in human HepG2 cells assessed as accumulation at G2 phase at 1 uM after 24 hrs by propidium iodide staining-based flow cytometry(reference value: 2.04%); format: functional
[29] = Cytotoxicity against human Bel7402 cells assessed as combination index at ED75 using 1:1 compound to polyphyllin I incubated for 24 hrs by MTT assay; format: functional, Bel-7402
[30] = system: HepG2; experiment: Induction of cytochrome c release in human HepG2 cells by Western blot analysis; format: functional, cell-based
[31] = Cell cycle arrest in human HepG2 cells assessed as accumulation at S phase at 1 uM after 24 hrs by […] staining-based flow cytometry in presence of PPI (reference value: 42.33%); format: functional
[32] = system: HepG2; experiment: Change in PCNA mRNA level in human HepG2 cells at 1 uM incubated for 24 hrs by RT-PCR analysis in presence of polyphyllin I relative to formosanin C alone treatment; format: functional, cell-based
[33] = Cytotoxicity against human Bel7402 cells assessed as combination index at ED90 using 1:1 compound to polyphyllin I incubated for 24 hrs by MTT assay; format: functional, Bel-7402
[34] = system: HepG2; experiment: Increase in p21 mRNA level in human HepG2 cells at 1 uM incubated for 24 hrs by RT-PCR analysis in presence of polyphyllin I relative to formosanin C alone treatment; format: functional, cell-based
[35] = Induction of apoptosis in human HepG2 cells assessed as upregulation of p53 mRNA level at 1 uM incubated for 24 hrs by RT-PCR analysis in presence of polyphyllin I; format: functional, cell-based
[36] = system: HepG2; experiment: Induction of Bax translocation from cytosol to mitochondria in human HepG2 cells by Western blot analysis in presence of polyphyllin I; format: functional, cell-based
[37] = system: HepG2; experiment: Induction of apoptosis in human HepG2 cells at 1 uM after 24 hrs by propidium iodide staining-based flow cytometry in presence of PPI (reference value: 3.01%); format: functional
[38] = system: HepG2; experiment: Decrease in cyclin E mRNA level in human HepG2 cells at 1 uM incubated for 24 hrs by RT-PCR analysis in presence of polyphyllin I relative to formosanin C alone treatment; format: functional, cell-based
[39] = Cell cycle arrest in human HepG2 cells assessed as accumulation at G1 phase at 1 uM after 24 hrs by propidium iodide staining-based flow cytometry in presence of PPI (reference value: 55.62%); format: functional
[40] = Cytotoxicity against human Bel7402 cells assessed as combination index at ED50 using 1:1 compound to polyphyllin I incubated for 24 hrs by MTT assay; format: functional, Bel-7402
[41] = system: HepG2; experiment: Induction of apoptosis in human HepG2 cells at 1 uM after 24 hrs by propidium iodide staining-based flow cytometry(reference value: 3.01%); format: functional
[42] = system: HepG2; experiment: Induction of Bax translocation from cytosol to mitochondria in human HepG2 cells by Western blot analysis; format: functional, cell-based
[43] = system: HepG2; experiment: Change in PCNA mRNA level in human HepG2 cells at 1 uM incubated for 24 hrs by RT-PCR analysis in presence of polyphyllin I relative to polyphyllin I alone treatment; format: functional, cell-based
[44] = system: HepG2; experiment: Induction mitochondrial membrane potential changes in human HepG2 cells at 1 uM after 24 hrs by rhodamine 123 staining-based flow cytometry (reference value: 23.8+/-2.3%); format: functional
[45] = Cytotoxicity against human HepG2 cells assessed as combination index at ED75 using 1:1 compound to polyphyllin I incubated for 24 hrs by MTT assay; format: functional
[46] = Cell cycle arrest in human HepG2 cells assessed as accumulation at G1 phase at 1 uM after 24 hrs by propidium iodide staining-based flow cytometry(reference value: 55.62%); format: functional
[47] = system: HepG2; experiment: Induction of nuclear fragmentation in human HepG2 cells at 0.5 uM after 24 hrs by Hoechst 33258 staining-based fluorescence microscopic analysis in presence of polyphyllin I; format: functional, cell-based

C[C@@H]1CC[C@@]2(OC1)O[C@H]1C[C@H]3[C@@H]4CC=C5C[C@@H](O[C@@H]6O[C@H](CO)[C@@H](O[C@@H]7O[C@@H](C)[C@H](O[C@@H]8O[C@@H](C)[C@H](O)[C@@H](O)[C@H]8O)[C@@H](O)[C@H]7O)[C@H](O)[C@H]6O[C@@H]6O[C@@H](C)[C@H](O)[C@@H](O)[C@H]6O)CC[C@]5(C)[C@H]4CC[C@]3(C)[C@H]1[C@@H]2C [PENNOGENIN RAHAMNOSYL CHACOTRIOSIDE]
Activity [1]: Active | Activity [2]: Active | CI [3]: 0.62 | CI [4]: 0.67 | Activity [5]: Active | Activity [6]: 2.63% | CI [7]: 0.58 | IC50 [8]: 3.76 µM | Activity [9]: Active | Activity [10]: Active | Activity [11]: Active | Activity [12]: Active | Activity [13]: Active | Activity [14]: Active | Activity [15]: Active | Activity [16]: Active | Activity [17]: Active | IC50 [18]: 4.36 µM | Activity [19]: Active | Activity [20]: Active | Activity [21]: Active | Activity [22]: 40.6% | Activity [23]: Active | Activity [24]: 36.4% | CI [25]: 0.54 | Activity [26]: Active | Activity [27]: Active | Activity [28]: 2.74% | CI [29]: 0.52 | Activity [30]: Active | Activity [31]: 28.7% | Activity [32]: Active | CI [33]: 0.46 | Activity [34]: Active | Activity [35]: Active | Activity [36]: Active | Activity [37]: 7.52% | Activity [38]: Active | Activity [39]: 68.7% | CI [40]: 0.58 | Activity [41]: 6.96% | Activity [42]: Active | Activity [43]: Active | Activity [44]: 32.6% | CI [45]: 0.56 | Activity [46]: 60.9% | Activity [47]: Active
